In experiment [1] the test system is epimastigotes of T. cruzi (Tulahuen 2 strain). Put plainly: Anti-T. cruzi test in vitro (epimastigote growth inhibition). The format is cell-based, Trypanosoma cruzi. The protocol: (§1) To evaluate the anti-trypanosomal activity of the synthesized 3H-[1,2]dithioles we used T. cruzi, Tulahuen 2 strain (discrete typing unit, DTU, TcVI [18]) in the epimastigote form. […] To establish the selectivity of the compounds against the parasite, unspecific cytotoxicity against mammalian cells (J774.1 murine macrophages) was studied for the most relevant derivatives. The selectivity indexes (SI) were also determined (Table 1).
We used epimastigotes of the Tulahuen 2 strain (DTU, Tc VI) growing in an axenic milieu (BHI-Tryptose). Cells from a 5–7-day-old culture were inoculated in fresh culture milieu to give an initial concentration of 1 × 10^6 cells/mL. The absorbance at 600 nm of the cells in culture was measured every day. At day 5, the milieu was inoculated with different quantities of the compounds from a stock solution in DMSO (DMSO concentration in the culture milieu never exceeded 0.4%). The control was made in the presence of 0.4% DMSO and in the absence of compounds. […] At day 5, the absorbance of the culture was measured and related to the control. The IC50 value was taken as the concentration of drug needed to reduce the absorbance ratio to 50%.

The target in experiment [2] is T1, Trypanosoma cruzi triosephosphate isomerase (TcTIM) (Trypanosoma cruzi, UniProt P52270).
T1 construct: made in house; host or cells: Escherichia coli
Put plainly: Inhibition of enzymatic activity of TcTIM. The format is biochemical. The protocol:
In order to investigate if the 3H-[1,2]dithioles inhibit TcTIM, we initially tested the inhibitory capacity of the compounds at a concentration of 200 μM and then at 25 μM.
Expression and purification of protein: TcTIM was expressed in Escherichia coli and purified as described in the literature. After purification, the enzyme, dissolved in 100 mM triethanolamine, 10 mM EDTA and 1 mM dithiothreitol (pH 8), was precipitated with ammonium sulfate (75% saturation) and stored at 4 °C. Before use, extensive dialysis against 100 mM triethanolamine/10 mM EDTA (pH 7.4) was performed. Protein concentration was determined by absorbance at 280 nm (ε = 36,440 M^−1·cm^−1).
Enzymatic activity assays. Enzymatic activity was determined following the conversion of glyceraldehyde 3-phosphate into dihydroxyacetone phosphate. The decrease in absorbance at 340 nm was followed in a multicell Cary spectrophotometer at 25 °C. The reaction mixture (1 mL, pH 7.4) contained 100 mM triethanolamine, 10 mM EDTA, 0.2 mM NADH, 1 mM glyceraldehyde 3-phosphate, and 0.9 units of α-glycerol phosphate dehydrogenase. The reaction was initiated by addition of 5 ng/mL of the TcTIM.
For inactivation studies, TcTIM was incubated at a concentration of 5 mg/mL in a buffer containing 100 mM triethanolamine, 10 mM EDTA, pH 7.4 and 10% of DMSO at 36 °C. The mixture also contained the compounds at the indicated concentrations. Compounds were dissolved in DMSO. After 2 h, […] was withdrawn and added to 1 mL of reaction mixture for the activity assay. None of the molecules tested here affected the activity of α-glycerol phosphate dehydrogenase, the enzyme used for trapping the product.
The IC50 value was taken as the concentration of drug needed to reduce the enzymatic activity to 50%. The experiments were performed in triplicate.

Experiment [3] has as its target T2, cruzipain (Trypanosoma cruzi, UniProt P25779).
T2 construct: endogenous in cells; host or cells: T. cruzi epimastigotes, Tulahuen 2 strain
Put plainly: Inhibition of T. cruzi cruzipain (Z-Phe-Arg-AMC fluorogenic substrate). The format is biochemical. The note with it: isolated enzyme.

In experiment [4] the test system is membrane sterol biosynthesis in epimastigotes of Y strain of T. cruzi. Put plainly: Inhibition of membrane sterol biosynthesis (qualitative TLC). The note with it: compounds at their IC50, 72 h, 28 °C, compared to control. Type of experiment: cell-based, Trypanosoma cruzi. Here is the method:
To do so, we analyzed the accumulation or depletion of some intermediates or final products of this biochemical pathway. Qualitative analyses were performed by thin layer chromatography (TLC).
The parasites, epimastigotes of Y strain of T. cruzi (DTU Tc II), were grown in 6 mL of BHT milieu in culture bottles. […] A negative control was performed with parasites in the absence of compounds. […] The extraction of membrane sterols was performed on completion of the incubation. For this purpose, the content of the culture bottle was centrifuged at 3000 rpm for 10 min, the supernatant was discarded and the pellet was suspended in sodium phosphate buffer solution (6 mL, 0.05 M, pH 7.4). Then it was centrifuged again at 3000 rpm for 10 min and the supernatant was discarded. The resulting pellet was resuspended in a chloroform/methanol (2:1) mixture (5 mL) and the suspension was kept at 4 °C for 12 h. Then, a saturated NaCl solution (5 mL) was added and the mixture extracted once with chloroform (3 mL) and once with hexane (3 mL) with care to avoid taking any aqueous phase. The extracted volume was applied to a silica gel TLC plate. Chromatography was performed eluting with hexane, two runs to identify squalene, and once with hexane/EtOAc (8:2) for ergosterol. […] Also, controls and commercial samples of ergosterol, lanosterol, cholesterol and squalene were run on the TLC plate. […]

The subject of experiment [5] is J774.1 murine macrophages. As to the kind of experiment: Unspecific in vitro cytotoxicity of mammalian cells (MTT). Type of experiment: cell-based. The settings on record: Mus musculus, 48 h exposure, read-out: IC50 against Macrophages. The protocol:
as §1
J774.1 murine macrophage cells (ATCC, Manassas, VA, USA) were grown in DMEM culture milieu containing 4 mM L-glutamine and supplemented with 10% heat-inactivated fetal calf serum. […] Afterwards, cells were exposed for 48 h to the compounds (25–400 μM) or vehicle for control (0.4% DMSO), and additional controls (cells in medium) were used in each test. Cell viability was then assessed by measuring the mitochondria-dependent reduction of MTT (3-(4,5-dimethylthiazol-2-yl)-2,5-diphenyltetrazolium bromide) to formazan. For this purpose, MTT in sterile PBS (0.2% glucose) pH 7.4 was added to the macrophages to achieve a final concentration of 0.1 mg/mL and the cells were incubated at 37 °C for 3 h. After removing the medium, formazan crystals were dissolved in 180 μL of DMSO and 20 μL of MTT buffer (0.1 M glycine, 0.1 M NaCl, 0.5 mM EDTA, pH 10.5) and the absorbance at 560 nm was measured. The IC50 was defined as the drug concentration at which 50% of the cells were viable, relative to the control (no drug added), and was determined by analysis using OriginLab8.5® sigmoidal regression (% of viable cells vs. logarithm of the compound concentration). Samples were performed in triplicate.

T1 sequence (P52270 whole entry): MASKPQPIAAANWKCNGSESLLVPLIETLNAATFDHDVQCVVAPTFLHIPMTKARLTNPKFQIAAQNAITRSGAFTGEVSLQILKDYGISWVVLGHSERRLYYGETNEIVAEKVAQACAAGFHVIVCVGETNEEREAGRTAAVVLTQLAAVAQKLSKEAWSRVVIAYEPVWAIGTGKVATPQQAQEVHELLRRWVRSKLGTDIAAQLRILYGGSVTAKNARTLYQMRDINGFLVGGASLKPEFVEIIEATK
T2 sequence (P25779 123-467): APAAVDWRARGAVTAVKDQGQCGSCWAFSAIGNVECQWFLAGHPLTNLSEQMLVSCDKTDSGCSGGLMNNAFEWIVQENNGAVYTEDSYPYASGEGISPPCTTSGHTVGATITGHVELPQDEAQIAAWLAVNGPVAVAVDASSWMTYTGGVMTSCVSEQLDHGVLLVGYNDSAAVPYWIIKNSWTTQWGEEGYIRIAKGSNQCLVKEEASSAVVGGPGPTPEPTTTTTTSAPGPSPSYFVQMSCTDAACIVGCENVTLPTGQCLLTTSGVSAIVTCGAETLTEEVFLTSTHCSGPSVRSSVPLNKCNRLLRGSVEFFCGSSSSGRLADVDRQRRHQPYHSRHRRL

`CC(=O)COc1ccc(C2=C/C(=C(\SCC(C)=O)C(C)=O)SS2)cc1` [Derivative 2]: the IC50 came to 7.7 ± 1.4 µM in experiment [1] (Trypanosoma cruzi, epimastigotes, Tulahuen 2 strain, triplicate, read-out: IC50 against T. cruzi); 15.5 ± 2.7 µM in experiment [3]; 24 ± 1 µM in experiment [5]. Further, the “SI (selectivity index)” value in experiment [1] (macrophages (J774.1) vs T. cruzi epimastigotes) was 3.1. In experiment [2] (percentage of enzymatic inhibition at 25 μM, read-out: TcTIM % Inhib25), the inhibition at 25 µM was found to be 48 ± 4%. Moreover, in experiment [2] (percentage of enzymatic inhibition at 200 μM, read-out: TcTIM % Inhib200), the inhibition at 200 µM amounted to 72%. The “Changes in membrane sterols and intermediates (squalene, ergosterol)” value in experiment [4] was “accumulate squalene and deplete ergosterol”.

A word on the IC50: it is the concentration at which inhibition is half-maximal.

The values above are taken from PMC6332334, “3-H-[1,2]Dithiole as a New Anti-Trypanosoma cruzi Chemotype: Biological and Mechanism of Action Studies” (Molecules, 2015).
